Assay results published in US12559529B2, “NPY2 receptor agonists” (Boehringer Ingelheim International GmbH, priority 2019, dated 2026).

Target: T1, Human Neuropeptide Y2 Receptor (Homo sapiens, UniProt P49146)
T1 construct: purchased CHEMICON HTS066M
T1 sequence (P49146 1-381): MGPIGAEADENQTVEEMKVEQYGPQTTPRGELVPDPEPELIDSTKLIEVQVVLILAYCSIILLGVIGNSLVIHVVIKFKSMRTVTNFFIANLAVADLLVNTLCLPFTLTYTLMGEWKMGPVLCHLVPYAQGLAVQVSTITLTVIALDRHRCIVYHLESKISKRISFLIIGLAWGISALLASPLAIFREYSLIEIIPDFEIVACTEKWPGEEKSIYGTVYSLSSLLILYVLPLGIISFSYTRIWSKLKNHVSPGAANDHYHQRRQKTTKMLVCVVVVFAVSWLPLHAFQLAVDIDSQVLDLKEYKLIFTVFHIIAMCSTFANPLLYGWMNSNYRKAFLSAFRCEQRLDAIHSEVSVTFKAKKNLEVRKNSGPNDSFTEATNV
Assay: Radioligand binding competition assay (RLB)
Details: Table 3; human 125I-PYY (1-36) 0.02 nM, Y2 receptor membranes; read-out: Ki
Method in brief: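 Competition binding at commercial human NPY Y2 membrane preparations, 0.5 μg protein per well, 2 h incubation at room temperature. Bound and free ligand were separated on GF/C filters and counted; IC50 was fitted by nonlinear regression.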

Question: CC[C@H](C)[C@H](NC(=O)[C@H](CCC(=O)O)NC(=O)[C@H](C)NC(=O)[C@@H]1CCCN1C(=O)[C@H](CO)NC(=O)[C@H](C)NC(=O)[C@H](CC(=O)O)NC(=O)[C@H](CCC(=O)O)NC(=O)[C@H](CCC(=O)O)NC(=O)[C@@H]1CCCN1C(=O)[C@H](CCCCNC(=O)COCCOCCNC(=O)COCCOCCNC(=O)CC[C@H](NC(=O)CCCCCCCCCCCCCCCCC(=O)O)C(=O)O)NC(=O)[C@H](CCC(=O)O)NC(=O)[C@@H]1CCCN1C(=O)[C@H](C)NC(=O)CC(C)C)C(=O)N[C@@H](CCC(N)=O)C(=O)N[C@@H](CCCNC(=N)N)C(=O)N[C@@H](Cc1ccc(O)cc1)C(=O)N[C@@H](Cc1ccc(O)cc1)C(=O)N[C@H](C(=O)N[C@@H](CO)C(=O)N[C@@H](CC(C)C)C(=O)N[C@@H](CCCNC(=N)N)C(=O)N[C@@H](Cc1c[nH]cn1)C(=O)N[C@@H](Cc1ccc(O)cc1)C(=O)N[C@@H](Cc1ccc(O)cc1)C(=O)N[C@@H](CC(N)=O)C(=O)N[C@@H](Cc1c[nH]c2ccccc12)C(=O)N[C@@H](CC(C)C)C(=O)N[C@H](C(=O)N[C@@H](CCCNC(=N)N)C(=O)N[C@@H](CCC(N)=O)C(=O)N[C@@H](CCCNC(=N)N)C(=O)N[C@@H](Cc1ccc(O)cc1)C(N)=O)[C@@H](C)O)C(C)C [Compound 95, N{alpha-4}-(3-methylbutanoyl)-N{epsilon-7}-[2-(2-{2-[2-(2-{2-[(4S)-4-carboxy-4-(17-carboxyheptadecanamido)butanamido]ethoxy}ethoxy)acetamido]ethoxy}ethoxy)acetamido]-[4A,7K,9E,15A,17I,18Q,22V,28Y,30W,31L]hPYY (4-36)] was tested. Which Ki did it give?
Answer: 0.66 nM

Question: With CC(C)CC(=O)N[C@@H](C)C(=O)N1CCC[C@H]1C(=O)N[C@@H](C)C(=O)N[C@@H](CCCCNC(=O)COCCOCCNC(=O)COCCOCCNC(=O)CC[C@H](NC(=O)CCCCCCCCCCCCCCCCC(=O)O)C(=O)O)C(=O)N1CCC[C@H]1C(=O)N1CCC[C@H]1C(=O)N[C@@H](CCC(=O)O)C(=O)N[C@@H](CC(=O)O)C(=O)N[C@@H](C)C(=O)N[C@@H](CO)C(=O)N1CCC[C@H]1C(=O)N[C@@H](CCC(=O)O)C(=O)N[C@@H](CCC(=O)O)C(=O)N[C@@H](CC(C)C)C(=O)N[C@@H](CCC(N)=O)C(=O)N[C@@H](CCCNC(=N)N)C(=O)N[C@@H](Cc1ccc(O)cc1)C(=O)N[C@@H](Cc1ccc(O)cc1)C(=O)N[C@H](C(=O)N[C@@H](CO)C(=O)N[C@@H](CC(C)C)C(=O)N[C@@H](CCCNC(=N)N)C(=O)N[C@@H](Cc1c[nH]cn1)C(=O)N[C@@H](Cc1ccc(O)cc1)C(=O)N[C@@H](Cc1ccc(O)cc1)C(=O)N[C@@H](CC(N)=O)C(=O)N[C@@H](Cc1c[nH]c2ccccc12)C(=O)N[C@@H](CC(C)C)C(=O)N[C@H](C(=O)N[C@@H](CCCNC(=N)N)C(=O)N[C@@H](CCC(N)=O)C(=O)N[C@@H](CCCNC(=N)N)C(=O)N[C@@H](Cc1ccc(O)cc1)C(N)=O)[C@@H](C)O)C(C)C [Compound 100, N{alpha-4}-(3-methylbutanoyl)-N{epsilon-7}-[2-(2-{2-[2-(2-{2-[(4S)-4-carboxy-4-(17-carboxyheptadecanamido)butanamido]ethoxy}ethoxy)acetamido]ethoxy}ethoxy)acetamido]-[4A,6A,7K,9P,18Q,22V,28Y,30W,31L]hPYY (4-36)] as the compound, how does the Ki read?
Answer: 0.44 nM

Question: Which Ki does the source give for CC(C)CC(=O)N[C@@H](C)C(=O)N1CCC[C@H]1C(=O)N[C@@H](CCC(=O)O)C(=O)N[C@@H](CCCCNC(=O)COCCOCCNC(=O)COCCOCCNC(=O)CC[C@H](NC(=O)CCCCCCCCCCCCCCCCC(=O)O)C(=O)O)C(=O)N1CCC[C@H]1C(=O)N[C@@H](CCC(=O)O)C(=O)N[C@@H](CCC(=O)O)C(=O)N[C@@H](CC(=O)O)C(=O)N[C@@H](C)C(=O)N[C@@H](CO)C(=O)N1CCC[C@H]1C(=O)N[C@@H](CCC(=O)O)C(=O)N[C@@H](CCC(=O)O)C(=O)N[C@@H](CC(C)C)C(=O)N[C@@H](CCC(N)=O)C(=O)N[C@@H](CCCNC(=N)N)C(=O)N[C@@H](Cc1ccc(O)cc1)C(=O)N[C@@H](Cc1ccc(O)cc1)C(=O)N[C@H](C(=O)N[C@H](C(=O)N[C@@H](CC(C)C)C(=O)N[C@@H](CCCNC(=N)N)C(=O)N[C@@H](Cc1c[nH]cn1)C(=O)N[C@@H](Cc1ccc(O)cc1)C(=O)N[C@@H](Cc1ccc(O)cc1)C(=O)N[C@@H](CC(N)=O)C(=O)N[C@@H](Cc1c[nH]c2ccccc12)C(=O)N[C@@H](CC(C)C)C(=O)N[C@H](C(=O)N[C@@H](CCCNC(=N)N)C(=O)N[C@@H](CCC(N)=O)C(=O)N[C@@H](CCCNC(=N)N)C(=O)N[C@@H](Cc1ccc(O)cc1)C(N)=O)[C@@H](C)O)[C@@H](C)O)C(C)C [Compound 102, N{alpha-4}-(3-methylbutanoyl)-N{epsilon-7}-[2-(2-{2-[2-(2-{2-[(4S)-4-carboxy-4-(17-carboxyheptadecanamido)butanamido]ethoxy}ethoxy)acetamido]ethoxy}ethoxy)acetamido]-[4A,7K,9E,18Q,22V,23T,28Y,30W,31L]hPYY (4-36)] here?
Answer: 0.87 nM

Question: With CC(C)CC(=O)N[C@@H](C)C(=O)N1CCC[C@H]1C(=O)N[C@@H](CCC(=O)O)C(=O)N[C@@H](CCCCNC(=O)COCCOCCNC(=O)COCCOCCNC(=O)CC[C@H](NC(=O)CCCCCCCCCCCCCCCCC(=O)O)C(=O)O)C(=O)N1CCC[C@H]1C(=O)N[C@@H](CCC(=O)O)C(=O)N[C@@H](CCC(=O)O)C(=O)N[C@@H](CC(=O)O)C(=O)N[C@@H](C)C(=O)N[C@@H](CO)C(=O)N1CCC[C@H]1C(=O)N[C@@H](CCC(=O)O)C(=O)N[C@@H](CCC(=O)O)C(=O)N[C@@H](CC(C)C)C(=O)N[C@@H](CCC(N)=O)C(=O)N[C@@H](CCCCN)C(=O)N[C@@H](Cc1ccc(O)cc1)C(=O)N[C@@H](Cc1ccc(O)cc1)C(=O)N[C@H](C(=O)N[C@@H](C)C(=O)N[C@@H](CC(C)C)C(=O)N[C@@H](CCCNC(=N)N)C(=O)N[C@@H](Cc1c[nH]cn1)C(=O)N[C@@H](Cc1ccc(O)cc1)C(=O)N[C@@H](Cc1ccc(O)cc1)C(=O)N[C@@H](CC(N)=O)C(=O)N[C@@H](Cc1c[nH]c2ccccc12)C(=O)N[C@@H](CC(C)C)C(=O)N[C@H](C(=O)N[C@@H](CCCNC(=N)N)C(=O)N[C@@H](CCC(N)=O)C(=O)N[C@@H](CCCNC(=N)N)C(=O)N[C@@H](Cc1ccc(O)cc1)C(N)=O)[C@@H](C)O)C(C)C [Compound 107, N{alpha-4}-(3-methylbutanoyl)-N{epsilon-7}-[2-(2-{2-[2-(2-{2-[(4S)-4-carboxy-4-(17-carboxyheptadecanamido)butanamido]ethoxy}ethoxy)acetamido]ethoxy}ethoxy)acetamido]-[4A,7K,9E,18Q,19K,22V,23A,28Y,30W,31L]hPYY (4-36)] as the compound, how does the Ki read?
Answer: 1.1 nM

Question: How did the Ki turn out when CC(C)CC(=O)N[C@@H](C)C(=O)N1CCC[C@H]1C(=O)N[C@@H](CCC(=O)O)C(=O)N[C@@H](CCCCNC(=O)COCCOCCNC(=O)COCCOCCNC(=O)CC[C@H](NC(=O)CCCCCCCCCCCCCCCCC(=O)O)C(=O)O)C(=O)N1CCC[C@H]1C(=O)N[C@@H](CCC(=O)O)C(=O)N[C@@H](CCC(=O)O)C(=O)N[C@@H](C)C(=O)N[C@@H](C)C(=O)N[C@@H](CO)C(=O)N1CCC[C@H]1C(=O)N[C@@H](CCC(=O)O)C(=O)N[C@@H](CCC(=O)O)C(=O)N[C@@H](CC(C)C)C(=O)N[C@@H](CCC(N)=O)C(=O)N[C@@H](CCCNC(=N)N)C(=O)N[C@@H](Cc1ccc(O)cc1)C(=O)N[C@@H](Cc1ccc(O)cc1)C(=O)N[C@H](C(=O)N[C@@H](CO)C(=O)N[C@@H](CC(C)C)C(=O)N[C@@H](CCCNC(=N)N)C(=O)N[C@@H](Cc1c[nH]cn1)C(=O)N[C@@H](Cc1ccc(O)cc1)C(=O)N[C@@H](Cc1ccc(O)cc1)C(=O)N[C@@H](CC(N)=O)C(=O)N[C@@H](Cc1c[nH]c2ccccc12)C(=O)N[C@@H](CC(C)C)C(=O)N[C@H](C(=O)N[C@@H](CCCNC(=N)N)C(=O)N[C@@H](CCC(N)=O)C(=O)N[C@@H](CCCNC(=N)N)C(=O)N[C@@H](Cc1ccc(O)cc1)C(N)=O)[C@@H](C)O)C(C)C [Compound 109, N{alpha-4}-(3-methylbutanoyl)-N{epsilon-7}-[2-(2-{2-[2-(2-{2-[(4S)-4-carboxy-4-(17-carboxyheptadecanamido)butanamido]ethoxy}ethoxy)acetamido]ethoxy}ethoxy)acetamido]-[4A,7K,9E,11A,18Q,22V,28Y,30W,31L]hPYY (4-36)] was run?
Answer: 0.94 nM

Question: How did the Ki turn out when CC(C)CC(=O)N[C@@H](C)C(=O)N1CCC[C@H]1C(=O)N[C@@H](CCC(=O)O)C(=O)N[C@@H](CCCCNC(=O)COCCOCCNC(=O)COCCOCCNC(=O)CC[C@H](NC(=O)CCCCCCCCCCCCCCCCC(=O)O)C(=O)O)C(=O)N1CCC[C@H]1C(=O)N[C@@H](CCC(=O)O)C(=O)N[C@@H](CCC(=O)O)C(=O)N[C@@H](CC(=O)O)C(=O)N[C@@H](C)C(=O)N[C@@H](CCC(=O)O)C(=O)N1CCC[C@H]1C(=O)N[C@@H](CCC(=O)O)C(=O)N[C@@H](CCC(=O)O)C(=O)N[C@@H](CC(C)C)C(=O)N[C@@H](CCC(N)=O)C(=O)N[C@@H](CCCNC(=N)N)C(=O)N[C@@H](Cc1ccc(O)cc1)C(=O)N[C@@H](Cc1ccc(O)cc1)C(=O)N[C@H](C(=O)N[C@@H](CCC(=O)O)C(=O)N[C@@H](CC(C)C)C(=O)N[C@@H](CCCNC(=N)N)C(=O)N[C@@H](Cc1c[nH]cn1)C(=O)N[C@@H](Cc1ccc(O)cc1)C(=O)N[C@@H](Cc1ccc(O)cc1)C(=O)N[C@@H](CC(N)=O)C(=O)N[C@@H](Cc1c[nH]c2ccccc12)C(=O)N[C@@H](CC(C)C)C(=O)N[C@H](C(=O)N[C@@H](CCCNC(=N)N)C(=O)N[C@@H](CCC(N)=O)C(=O)N[C@@H](CCCNC(=N)N)C(=O)N[C@@H](Cc1ccc(O)cc1)C(N)=O)[C@@H](C)O)C(C)C [Compound 111, N{alpha-4}-(3-methylbutanoyl)-N{epsilon-7}-[2-(2-{2-[2-(2-{2-[(4S)-4-carboxy-4-(17-carboxyheptadecanamido)butanamido]ethoxy}ethoxy)acetamido]ethoxy}ethoxy)acetamido]-[4A,7K,9E,13E,18Q,22V,23E,28Y,30W,31L]hPYY (4-36)] was run?
Answer: 5.43 nM
